According to US20260216362A1, “ANTI-BDCA2 ANTIBODY-DRUG CONJUGATE AND USE THEREOF” (DUALITY BIOLOGICS (SHANGHAI) CO., LTD., priority 2022, published 2026):

Legend:
[1] = tested on: cynomolgus monkey whole blood stimulated with CpG-A; assay: IFN-α after in vitro CpG-A stimulation of whole blood of dosed cynomolgus monkeys; assay type: in vivo; conditions: 10 mg/kg i.v.; CpGA-stimulated whole blood
Method: Cytokine expression was detected by whole blood stimulation in vitro.
The cells were cultured at 37° C. for 18 h, and the supernatant was collected. The TNF-α and IFN-α concentration levels in the supernatant were detected using an ELISA kit.
IFN-α concentration assay was performed using a Mabtech Human IFN-α (pan specific) ELISA kit (Cat. No. 3425-1H-20). 50 μL of serially diluted cytokine standard was added to each standard well, 50 μL of test sample was added to each sample well, and 50 μL of PBS was added to each blank control well. The cells were incubated at 37° C. for 2 h. The plate was washed 3 times, the liquid in each well was removed, and 300 µL of 1× PBST buffer working solution was added to each well; and after 1 minute of residence, the liquid in each well was discarded. 100 μL of detection antibody working solution was added to each well, and the cells were incubated at 37° C. for 1 h. […] The reading at wavelength 450 nm was detected using a Molecular device spectra max plus384 instrument within 10 min after the reaction was stopped.
Evaluation criteria in FIGS. 12-13: the average expression level changes of IFNα/TNFα were evaluated after in vitro stimulation of the whole blood with CpGA at 200 μg/mL on days 0-33 after administration. […]

human PBMC cells = assay: Inhibition by humanized antibodies of IFNα release from human PBMC cells stimulated by CpG-A; assay type: cell-based; conditions: Table 4, humanized antibodies; read-out: EC50, inhibition of release of cytokine IFNα from human PBMC cells stimulated by CpG-A
Method: A series of humanized candidate antibody molecules were selected and subjected to the function detection of inhibiting the release of the cytokine IFNα from the human PBMC cells stimulated by CpG-A. The cryopreserved human PBMC cells were thawed and incubated in a complete culture medium (1640+10% FBS+1×NEAA+1×L-Glutamine) overnight for 18 h. The next day, the PBMC cells were collected and centrifuged at 600 g for 8 min, and the supernatant was discarded. The cells were resuspended to 8×10^6 cells/mL in a culture medium (1640+10% FBS), and the mixture was added to a 3799 cell culture plate at 100 μL/well. The test antibody was diluted in a 10-fold gradient (0.0001 nM-10 nM, and 0 concentration point was used as a control) with the culture medium (1640+10% FBS), and the diluted antibody was added to the PBMCs at 50 μL/well. The cells were resuspended and then incubated at 37° C. for 6 h. 50 μL of CpG-A (2 μM, Invitrogen, tlrl-2216-5) diluted in the culture medium (1640+10% FBS) was added to each well and mixed, followed by incubation at 37° C. for another 20 h. […]
The antibody MT1/3/5 (Mabtech, 3425-1H-20) was diluted to 4 μg/mL with PBS, and added to a CORNING ELISA plate at 100 μL/well. […] The values at OD450 nm were read on an ELISA plate reader, and curves were fitted using GraphPad Prism6. […]

BIIB059: reference antibody specifically binding to BDCA2, sequence derived from U.S. Pat. No. 9,902,775B2; SEQ ID NO: 25 and 26 [reference compound]
IFN-α expression level compared to the blank control group [1]: reduced
EC50 (human PBMC cells): 40 pM
